Results as given in EP4796540A2, “N-SULFONAMIDE NITROGEN-CONTAINING FUSED HETEROCYCLIC COMPOUND, AND APPLICATION THEREOF” (priority 2023, dated 2025).

Assay: In vivo pharmacokinetic study in mice
Conditions: mouse, plasma; CD-1 mice (male), IV 1 mg/kg; read-out: Clint
Protocol: 1. Experimental purpose: To test the pharmacokinetics of compounds in CD-1 mice. 2. Experimental instrument and materials: Animals: CD-1 mice (male) Instrument: Intravenous injection: 40% HP-β-CD in water; intragastric administration: 0.2% HPC + 0.5% Tween80 in water. 6 male mice. Fasting treatment was performed in the evening before the administration, with free access to water. During the experiment, the mice were allowed to eat and drink freely, and administered by intravenous injection or gavage. After administration, the animal status was observed, and abnormal behaviors were recorded. Blood was collected from the orbit at 0.0833, 0.25, 1, 2, 4, 8, and 24 hours after intravenous injection, and at 0.25, 0.5, 1, 2, 4, 6, 8, and 24 hours after intragastric administration. 20 µL of plasma sample was taken and added with 250 µL of acetonitrile (containing dexamethasone as an internal standard) to precipitate proteins. The mixture was centrifuged at 4°C and 4000 rpm for 20 minutes, and 180 µL of the supernatant was taken and mixed with 180 µL of an aqueous solution containing 0.1% formic acid in a 96-well plate. […] Unknown samples were calculated by the standard curve. Pharmacokinetic parameters were calculated by the non-compartmental analysis model of WinNonlin 8.2 software and were presented in a report, including Clint, Cmax, AUC, etc. […]

With [2H]C([2H])([2H])Oc1nc(C(=O)NS(C)(=O)=O)ccc1NCC#Cc1cc2c(N[C@@H]3CCN(C)C[C@@H]3F)cccn2c1CC(F)(F)F [Cpd-2, 5-((3-(8-(((3S,4R)-3-Fluoro-1-methylpiperidin-4-yl)amino)-3-(2,2,2-trifluoroethyl)indolizin-2-yl)prop-2-yn-1-yl)amino)-6-(methoxy-d3)-N-(methylsulfonyl)picolinamide] the clearance was 15 mL/min/kg.
